# Results taken from US20050043341A1, “3-'Hydroxy-(-4-trifluoromethylphenyl)-methyl-7-spirocyclobutyl-5,6,7 8-tetrahydroquinolin-5-ol derivatives and the use of the same as cholesterol ester transfer protein (cetp) inhibitors” (priority 2001, published 2005).
# Experiments:
# [1] = tested on: transgenic hCETP mice; test: In vivo activity in transgenic hCETP mice (HDL); conditions: stomach tube
# Method: In experiments for the determination of the oral action on lipoproteins and triglycerides, test substance is administered to transgenic mice using a stomach tube (Dinchuck, Hart, Gonzalez, Karmann, Schmidt, Wirak; BBA (1995), 1295, 301). Before the start of the experiment, blood is taken from the mice retroorbitally in order to determine cholesterol and triglycerides in the serum. The serum is obtained as described above for hamsters by incubation at 4° C. overnight and subsequent centrifugation at 6000×g. […] The change in the parameters measured is expressed as the percentage change compared with the starting value.
# [2] = target: T1, CETP (Homo sapiens, UniProt P11597); test: CETP fluorescence test; format: biochemical; conditions: CETP from human plasma, 37° C., 4 hours; read-out: IC50 (nM) Fluor. test
# T1 construct: CETP is obtained in partially purified form from human plasma; from tissue; host or cells: human plasma
# T1 sequence (P11597 18-493): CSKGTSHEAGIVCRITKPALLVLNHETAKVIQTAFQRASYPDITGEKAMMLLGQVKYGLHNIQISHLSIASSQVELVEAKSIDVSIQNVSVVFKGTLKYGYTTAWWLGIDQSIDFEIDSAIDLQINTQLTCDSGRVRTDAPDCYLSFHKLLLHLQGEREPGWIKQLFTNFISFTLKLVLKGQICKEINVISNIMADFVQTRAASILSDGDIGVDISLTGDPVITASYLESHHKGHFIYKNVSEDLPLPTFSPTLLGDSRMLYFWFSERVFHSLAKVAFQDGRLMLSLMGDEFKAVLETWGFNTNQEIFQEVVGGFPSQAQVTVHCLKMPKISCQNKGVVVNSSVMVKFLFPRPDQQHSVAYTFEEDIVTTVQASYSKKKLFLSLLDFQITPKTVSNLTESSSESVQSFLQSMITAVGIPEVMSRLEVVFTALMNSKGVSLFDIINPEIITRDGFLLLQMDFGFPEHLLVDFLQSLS
# Method: (§1) CETP is obtained in partially purified form from human plasma by differential centrifugation and column chromatography and used for the test. To this end, human plasma is adjusted to a density of 1.21 g per ml using NaBr and centrifuged at 4° C. at 50000 rpm for 18 h. The bottom fraction (d>1.21 g/ml) is applied to a Sephadex® Phenyl-Sepharose 4B (Pharmacia) column, washed with 0.15 M NaCl/0.001 M tris HCl pH 7.4 and then eluted with dist. water. Die CETP-active fractions are pooled, dialysed against 50 mM Na acetate pH 4.5 and applied to a CM-Sepharose® (Pharmacia) column. The mixture is then eluted using a linear gradient (0-1 M NaCl). The pooled CETP fractions are dialysed against 10 mM TrisHCl pH 7.4 and then further purified by chromatography on a Mono Q® column (Pharmacia).
# Measurement of the CETP-catalysed transfer of a fluorescent cholesterol ester between liposomes—modified according to the procedure of Bisgaier et al., J. Lipid Res. 34, 1625 (1993).
# For the production of the donor liposomes, 1 mg of cholesteryl 4,4-difluoro-5,7-dimethyl-4-bora-3a,4a-diaza-s-indacene-3-dodecanoate (cholesteryl BODIPY® FL C12, Molecular Probes) is dissolved in 600 μl of dioxane with 5.35 mg of triolein and 6.67 mg of phosphatidylcholine with gentle warming in an ultrasonic bath and this solution is added very slowly with ultrasonication to 63 ml of 50 mM tris/HCl, 150 mM NaCl, 2 mM EDTA buffer pH 7.3 at RT.
# The suspension is then ultrasonicated under an N2 atmosphere for 30 minutes in the Braukson ultrasonic bath at about 50 watts, the temperature being kept at about 20° C.
# The acceptor liposomes are obtained analogously from 86 mg of cholesteryl oleate, 20 mg of triolein and 100 mg of phosphatidylcholine dissolved in 1.2 ml of dioxane and 114 ml of above buffer by ultrasonication at 50 watts (20° C.) for 30 minutes.
# For testing, a test mix consisting of 1 part of above buffer, 1 part of donor liposomes and 2 parts of acceptor liposomes is used.
# 80 μl of test mix are treated with 1-3 μg of enriched CETP fraction, obtained from human plasma by means of hydrophobic chromatography, and 2 μl of the substance to be investigated in DMSO and incubated at 37° C. for 4 hours.
# The change in the fluorescence at 485/535 nm is a measure of the CE transfer; the inhibition of the transfer in comparison to the control batch without substance is determined.
# [3] = tested on: Syrian golden hamsters; test: In vivo activity in Syrian golden hamsters (HDL cholesterol); conditions: perorally
# Method: In experiments for the determination of the oral action on lipoproteins and triglycerides, test substance dissolved in DMSO and 0.5% suspended in Tylose are administered perorally by means of a stomach tube to Syrian golden hamsters bred in-house. For the determination of the CETP activity, before the start of the experiment blood is taken by retro-orbital puncture (about 250 μl). The test substances are then administered perorally by means of a stomach tube. The control animals receive identical volumes of solvent without test substance. The feed is then withdrawn from the animals and blood is taken at various times—up to 24 hours after substance administration—by puncture of the retroorbital venous plexus.
# Clotting is terminated by incubation at 4° C. overnight, then centrifugation is carried out for 10 minutes at 6000×g. The content of cholesterol and triglycerides in the serum thus obtained is determined with the aid of modified commercially obtainable enzymatic tests (Ecoline 25 Cholesterol 1.14830.0001 Merck Diagnostica, Ecoline 25 Triglycerides 1.14856.0001 Merck Diagnostica). Serum is suitably diluted using physiological saline solution.
# 10 μl of serum dilution are treated with 200 μl of Ecoline 25 reagent in 96-hole plates and incubated for 10 minutes at room temperature. The optical density is then determined at a wavelength of 490 nm using an automatic plate reader. The triglyceride or cholesterol concentration contained in the samples is determined with the aid of a standard curve measured in parallel.
# The determination of the content of HDL cholesterol is carried out after precipitation of the ApoB-containing lipoproteins (Sigma 352-4 HDL cholesterol reagent) according to the manufacturer's instructions.
# [4] = target: T1, CETP; test: CETP-SPA test; format: biochemical; conditions: 3H-cholesterol ester transfer from HDL to biotin-LDL, 37° C., 18 h
# Method: as §1
# 50 ml of fresh human EDTA plasma are adjusted to a density of 1.12 using NaBr and centrifuged at 4° C. in a Ty 65 rotor at 50000 rpm for 18 h. The upper phase is used for the obtainment of cold LDL. The lower phase is dialysed against 3×41 of PDB buffer (10 mM tris/HCl pH 7.4, […], 1 mM EDTA, 0.02% NaN3). Per 10 ml of retentate volume, 20 μl of 3H-cholesterol (Dupont NET-725; 1 μC/μl dissolved in ethanol!) is then added and the mixture is incubated at 37° C. under N2 for 72 h.
# The batch is then adjusted to the density 1.21 using NaBr and centrifuged at 20° C. in a Ty 65 rotor at 50000 rpm for 18 h. The upper phase is recovered and the lipoprotein fractions are purified by gradient centrifugation. To this end, the isolated, labelled lipoprotein fraction is adjusted to a density of 1.26 using NaBr. 4 ml each of this solution are covered in centrifuged tubes (SW 40 rotor) with a layer of 4 ml of a solution of density 1.21 and 4.5 ml of a solution of 1.063 (density solutions of PDB buffer and NaBr) and then centrifuged for 24 h at 38000 rpm and 20° C. in the SW 40 rotor. The intermediate layer lying between the density 1.063 and 1.21, containing the labelled HDL, is dialysed against 3×100 volumes of PDB buffer at 4° C.
# The retentate contains radiolabelled ^3H-CE-HDL, which, adjusted to about 5×10^6 cmp per ml, is used for the test.
# For testing of the CETP activity, the transfer of ^3H-cholesterol ester from human HD lipoproteins to biotinylated LD lipoproteins is measured.
# The reaction is ended by addition of streptavidin-SPA®beads (Amersham) and the transferred radioactivity is determined directly in a liquid scintillation counter.
# In the test batch, 10 μl of HDL-^3H-cholesterol ester (˜50000 cpm) are incubated at 37° C. for 18 h with 10 μl of biotin-LDL (Amersham) in 50 mM Hepes/0.15 M NaCl/0.1% bovine serum albumin/0.05% NaN3 pH 7.4 containing 10 μl of CETP (1 mg/ml) and 3 μl of solution of the substance to be tested (dissolved in 10% DMSO/1% RSA). 200 μl of the SPA-streptavidin bead solution (TRKQ 7005) are then added, incubated further with shaking for 1 h and then measured in a scintillation counter.
# Corresponding incubations with 10 μl of buffer, 10 μl of CETP at 4° C. and 10 μl of CETP at 37° C. serve as controls.
# The activity transferred in the control batches with CETP at 37° C. is rated as 100% transfer. The substance concentration at which this transfer is reduced to half is specified as the IC50 value.
SMILES,% HDL increase after 4 d (Dose: 4 × 10 mg/kg) [1] [%],IC50 [2] [nM],% HDL increase after 24 h (Dose: 2 × 10 mg/kg) [3] [%],IC50 [4] [nM]
"CC(C)c1nc2c(c(C3CCCC3)c1[C@@H](O)c1ccc(C(F)(F)F)cc1)[C@@H](O)CC1(CCC1)C2 [Example 69, (5S)-2-Isopropyl-4-cyclopentyl-3-[(S)-hydroxy-(4-trifluoromethylphenyl)-methyl]-7-spirocyclobutyl-5,6,7,8-tetrahydroquinolin-5-ol]",28,70,,
"O[C@@H](c1ccc(C(F)(F)F)cc1)c1c(C2CCCC2)nc2c(c1C1CCCC1)[C@@H](O)CC1(CCC1)C2 [Example 71, (5S)-2,4-Dicyclopentyl-3-[(S)-hydroxy-(4-trifluoromethylphenyl)-methyl]-7-spirocyclobutyl-5,6,7,8-tetrahydroquinolin-5-ol]",,40,14,
"O[C@@H](c1ccc(C(F)(F)F)cc1)c1c(C2CCCC2)nc2c(c1-c1ccc(F)cc1)[C@@H](O)CC1(CCC1)C2 [Example 80, (5S)-2-Cyclopentyl-4-(4-fluorophenyl)-3-[(S)-hydroxy-(4-trifluoromethylphenyl)-methyl]-7-spirocyclobutyl-5,6,7,8-tetrahydroquinolin-5-ol]",,9,17,5
